This note sets out measurements from PMC4640066 (Nature Communications, 2015).

One experiment concerns the target T1, human γ-tubulin (Homo sapiens, UniProt P23258).
T1 construct: myc (C); 6His (C); made in house; host or cells: Sf21 insect cells (baculovirus)
Briefly: Inhibition of GTP binding of γ-tubulin (α-[32P]-GTP crosslinking assay). The settings on record: 60 μM compound; 70 nM γ-tubulin, 100 nM α-[32P]-GTP; mean±s.d. On the procedure: For analysis of the effect of drugs on GTP binding of γ-tubulin, 70 nM of purified human γ-tubulin in GTP-binding buffer (50 mM MES, 5 mM MgCl2, 1 mM EGTA, pH 6.6) was incubated with or without compounds for 15 min at 20 °C. A final concentration of 100 nM of α-[^32P]-GTP was added and incubated at 20 °C for 30 min. After incubation, bound α-[^32P]-GTP was crosslinked to γ-tubulin for 60 s by illumination with a ultraviolet lamp using CL-1000 Ultraviolet Crosslinker. Protein with the crosslinked GTP was separated from unbound nucleotide by TCA precipitation and SDS–PAGE, and ^32P labelling was measured using a Typhoon FLA-7000 (General Electronic Company). Band intensities were quantified with the ImageJ software.

In experiment [1] the test system is HeLa cells expressing EB3-EGFP (interphase). Briefly: EB3-EGFP signal tracking, interphase cells. The experiment is classed as cell-based, human. The settings on record: 15 min; for Track length / Track lifetime / Velocity: interphase HeLa EB3-EGFP, mean±s.d.; for Track numbers: interphase, from a 144-μm^2 area inside the cell. On the procedure:
A HeLa ‘Kyoto' cell line stably expressing EB3-EGFP (a kind gift from Dr J. Ellenberg) was maintained in DMEM+GlutaMAX (Gibco) supplemented with 10% FBS, 2 mM L-glutamine, 100 U ml^−1 penicillin, 100 μg ml^−1 streptomycin, 1 mM sodium pyruvate and 0.5 mg ml^−1 G418. Cells were seeded into eight-well Lab-Tek chambers (Nunc, Rochester, NY) for 24-h prior imaging. For imaging, the medium was exchanged to Live Cell Imaging Solution (Molecular Probes Life Technologies) supplemented as described above and containing various concentrations of AG1 or gatastatin. Interphase cells were incubated with drugs for 15 min and mitotic cells were treated as described in Fig. 4c. Then, EB3 tracks were observed under a PerkinElmer UltraVIEW ERS Spinning Disk microscope (Software: UltraVIEW ERS Imaging Suite) equipped with a Plan-APOCHROMAT × 100/1.4 Oil DIC objective, a Confocal Scanner Unit (Yokogawa CSU 22), a Hamamatsu EM CCD camera (C9100-50) and a 488-nm Argon laser at 37 °C, and time-lapse sequences were performed for 60 s with a 400-ms interval. Automatic analysis of EB3-EGFP signal tracks was performed with ImageJ (http://imagej.nih.gov/ij/) and Matlab (Mathworks) as described.

In experiment [2] the test system is γ-tubulin-dependent, centrosome-induced aster formation. Kind of experiment: Centrosome (sperm nuclei)-induced aster formation in Xenopus egg extracts. The experiment is classed as biochemical. The settings on record: Xenopus extracts with sperm nuclei, 30 min at 20 °C. Here is the method:
Cytostatic factor (CSF)-arrested M phase Xenopus egg extracts (CSF extracts) were prepared. Briefly, unfertilized eggs were crushed by 10,700g centrifugation for 20 min. M phase extracts were mixed with 0.5 μM Cy3-labelled α/β-tubulin and various concentrations of compounds. After incubation for 30 min on ice, 15 μM RanQ69L, 200 sperm nuclei per μl or 5% DMSO were added and incubated for 30 min on ice. […]
(a) The efficiency of γ-tubulin depletion in Xenopus extracts was confirmed by immunoblotting. […] The depletion efficiency was calculated with ImageJ and was approx. 80%. […]
Scale bars, 5 μm. […] Aster formation was analyzed by fluorescence microscopy. […] Asters (Fig. 1e and Supplementary Figure 4c) in 10 randomly selected fields were counted per slide with a 10× objective; each sample had four slides. […]
Error bars represent S.D. Two-tailed, paired Student’s t-test was used to obtain P values. […] (e) Quantification of the radius of RanQ69L-induced asters from Fig. 1e and Supplementary Figure 4c. To gauge the impact upon the radius of the asters, n = 20 asters were quantified per sample per experiment. […]

T1 sequence (P23258 whole entry): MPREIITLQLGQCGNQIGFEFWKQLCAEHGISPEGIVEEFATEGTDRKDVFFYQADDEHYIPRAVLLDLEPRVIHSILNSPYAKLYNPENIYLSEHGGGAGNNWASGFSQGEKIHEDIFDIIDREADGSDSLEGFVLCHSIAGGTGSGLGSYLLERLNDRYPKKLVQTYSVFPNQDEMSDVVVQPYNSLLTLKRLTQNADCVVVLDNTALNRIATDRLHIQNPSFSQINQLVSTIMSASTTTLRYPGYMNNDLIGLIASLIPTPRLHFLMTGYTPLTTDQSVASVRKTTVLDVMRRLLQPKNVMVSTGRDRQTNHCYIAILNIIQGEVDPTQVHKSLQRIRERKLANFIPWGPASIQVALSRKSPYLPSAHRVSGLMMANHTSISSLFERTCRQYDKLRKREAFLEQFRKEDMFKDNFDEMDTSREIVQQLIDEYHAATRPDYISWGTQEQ

Consider `COc1cc2c(=O)c(-c3cc(OC)c4c(c3OC)OCO4)coc2cc1OCc1ccccc1` [Gatastatin, O^7-demethylbenzyl AG1], for which the “GTP binding (control %)” value on human γ-tubulin is recorded as 6.7±3.7%. Further, in experiment [1] (3 μM), the Track length is listed as 1.03±0.16 μm, the Track lifetime was 3.45 ± 0.71 s, the Velocity came out at 12.49±1.67 μm min^−1 and the Track numbers is 94±27. Further, in experiment [1] (10 μM), the Track length was 0.84±0.10 μm, the Track lifetime was found to be 3.67 ± 0.62 s, the Velocity turned out to be 10.03±0.99 μm min^−1 and the Track numbers came to 83±30. Moreover, in experiment [1] (30 μM), the Track length is reported as 0.71±0.08 μm, the Track lifetime worked out at 3.84 ± 0.50 s, the Velocity was 8.43±0.81 μm min^−1 and the Track numbers turned out to be 89±32. The “Effect on centrosome-induced aster formation” value in experiment [2] is given as “nearly completely inhibited”.
